According to patent US6943147B2, “Cancer treatment using proANP peptides” (University of South Florida, priority 2003, dated 2005):

What was measured:
[1] = test system: pancreatic adenocarcinoma cell line, ATCC number CRL-2119; test: Number of pancreatic adenocarcinoma cells in culture, counted by microscope; assay type: cell-based, human; conditions: for number of cancer cells compared to controls: 48 hours
Text: The pancreatic adenocarcinoma cell line, ATCC number CRL-2119, was derived in 1985 from a nude mouse xenograft of a primary tumor removed from the head of the pancreas. It is a moderate to well-differentiated pancreatic adenocarcinoma of ductal origin. These pancreatic adenocarcinoma cells are stimulated to proliferate in culture by insulin, insulin-like growth factor I (IGF-I), epidermal growth factor (EGF), and transforming growth factor alpha (TGF alpha). These adenocarcinoma cells contain significant concentrations of tumor-associated antigens CEA, CA 125, and CA 19-9. In culture, these adenocarcinoma cells form monolayers of morphologically heterogeneous polar epithelial cells. These cells are tumorgenic in that they form tumors in athymic nude mice at the site of inoculation that are histologically similar to the tumor of origin.
Propagation of these cells was in Dulbecco's modified Eagle's plus Ham's F12-A 1:1 mixture of Dulbecco's modified Eagle's medium and Ham's F12 medium containing 1.2 g/L of sodium bicarbonate (Sigma Chemical Co., St. Louis, Mo.) supplemented with 15 mM HEPES and fetal bovine serum, 10%, at a temperature of 37° C. as recommended by the ATCC.
These pancreatic adenocarcinoma cells were subcultured (passaged) by removing spent (i.e., old) medium by aspiration, and then adding calcium and magnesium free Hank's Balanced Salt Solution with 0.25% trypsin and 0.03% ethylenediaminetetracetic acid (EDTA). The culture was allowed to sit at room temperature for 2 to 5 minutes. Fresh medium was added to the adenocarcinoma cells which were dispensed into new flasks, with subculture every 6 to 8 days. The growth medium was changed every three days.
After these adenocarcinoma cells were subcultured for 24 hours, they were then seeded to coverslips and transferred to 24 microwell plates (NUCOLON, Roskilde Denmark), with 1 ml Dulbeco Modified Eagle's (DME)/[…] nutrient culture media (Sigma Chemical Co.) with 10% fetal bovine serum (Atlanta Biologicals, Norcross, Ga.). After 24 hours, wells were washed twice with Dulbecco's Modified Eagle's/Ham's F12 with 0.1% bovine serum albumin (Sigma-Aldrich, St. Louis, Mo.) and allowed to incubate in this serum free medium for an additional 24 hour period of serum deprivation. Serum-free media was utilized to remove all variables (EGF, etc.) present in serum in order that interpretation of any data obtained would be straightforward. After 24 hours of serum deprivation, media volume was reduced to 250 μL per well with or without the respective peptide hormones at their 1 μM concentrations (1% of this volume). The adenocarcinoma cells were then incubated for various periods of time (24, 48, 72, and 96 hours).At the end of the above time periods, hematoxylin was added for 5 minutes to make the cells more visible for counting, and then they were washed for 5 minutes. The coverslips were then placed face down on microscope slides with the addition of 6 μl of histologic grade phosphate buffered saline (PBS)/I-glycine that had been filtered immediately before use with a 0.22 μm polyethersulfone, nonpyrogenic, sterile, low protein binding membrane (Corning 43117, Corning Inc., Corning, N.Y.). The number of adenocarcinoma cells were then counted with a cell counter evaluating ten fields of the microscope slide at 40× along the X-axis with an Olympus BH-2 microscope (Atlanta, Ga.). This evaluation was repeated on six separate occasions with the number of adenocarcinoma cells reflecting 60 observations for each group, i.e., 60 observations for controls and 60 observations for each of the four groups with respective peptide hormones. The only variable in this investigation was whether one of the four peptide hormones was added to the pancreatic adenocarcinoma cells. Otherwise all the adenocarcinoma cells were treated the same, i.e., with same culture medium, time of incubation, and processing of cells for the various investigations. […]

[2] = test system: pancreatic adenocarcinoma cells; test: DNA synthesis by bromodeoxyuridine (BrdU) incorporation into adenocarcinoma cells; assay type: cell-based, human; conditions: 24 hours
Text: To investigate whether these peptide hormones were inhibiting DNA synthesis and cell proliferation bromodeoxyuridine (BrdU) incorporation into the adenocarcinoma cells was utilized. BrdU was from BD Bioscience, San Jose, Calif. DNA synthesis and doubling of the genome take place during the synthetic or S phase. BrdU is a thymidine analog incorporated into nuclear DNA during the S phase of the cell cycle. Immunohistochemical methods use BrdU also as a marker of cell proliferation in cancer biology studies. After 24 hours in culture with 1 μM of LANP, vessel dilator, kaliuretic peptide, or ANP, respectively, or with no peptide hormone (i.e., control), BrdU in a final concentration of 10 μM in the cell culture medium was added for 45 minutes—which is time in which the cells are in the logarithmic phase of cell proliferation. For immunohistochemistry, a BrdU in situ detection kit from Becton Dickinson Immunocytochemistry Systems, San Jose, Calif., was utilized.
After the 45 minutes with BrdU, the adenocarcinoma cells were washed three times in phosphate buffered saline (PBS), five minutes each. This was followed by placing the cells in a −80° C. freezer for five minutes and then 100% methanol was added at 5° C. in order for the cells to become permeable enabling the anti-BrdU antibody to reach the nucleus of the cell. The cells were then washed again in PBS before 100 μl of biotinylated anti-BrdU antibody was added. The coverslips were then incubated in a humidified chamber for one hour. After this incubation, the slides were rinsed in PBS, two minutes each. Then streptavidin-horseradish peroxidase (HRP) was added to each coverslip. The cells were then incubated for 30 minutes. Streptavidin-HRP binds to biotinylated anti-BrdU and HRP is used with addition of diaminobenzidine (DAB) substrate system to visualize BrdU incorporation into the adénocarcinoma cells. After the 30 minute incubation with streptavidin-HRP, the coverslips were rinsed in PBS, two minutes each time, before adding the DAB substrate solution, which contains DAB chromagen and DAB buffer, for five minutes. The coverslips were then rinsed in water, two minutes each time before counterstaining the slides with hematoxylin for 60 seconds followed by a thorough rinsing in water for five minutes. The incorporation of the BrdU stain into the nucleus was then counted using a Nikon Inverted Diaphot-TMD Microscope (Tokyo, Japan). The number of stained nuclei was compared in the four peptide hormone groups to the positive control group. The negative control for these studies was provided by Becton Dickinson Immunocytochemistry Systems.
BrdU has an advantage over ^3H-thymidine incorporation in that it takes less time and provides high resolution.
Cyclic GMP and prostaglandin E2 are the two known mediators of all of the previously described biologic effects of these four peptide hormones. All four of these peptide hormones-induced vasodilation of vasculature is mediated by increased cyclic GMP concentrations via enhancing guanylate cyclase activity. […] ANPs effects in the kidney are thought to be mediated by cyclic GMP. Each of these peptide hormones increase cyclic GMP while simultaneously dilating vasculature. 8 bromo-cyclic GMP reproduces these vasodilatory effects. For the present investigation of the mechanism of these peptide hormones' ability to inhibit DNA synthesis in cancer cells, 8-bromoguanosine 3′,5′-cyclic monophosphate (i.e., 8-bromo cyclic GMP, Sigma-Aldrich Co., St. Louis, Mo.) was utilized. 8-bromo cyclic GMP is a cell-permeable analog of cyclic GMP. 8-bromo cyclic GMP effects on DNA synthesis were investigated in dose-response curves with cyclic GMP concentrations ranging from 100 pM to 5 mM.
Prostaglandin E2, i.e., (5Z, 11α, 13E, 15S)-11, 15-dihydro-9-oxo-prosta-5, 13-dien-I-oic acid was purchased from Sigma-Aldrich, St. Louis, Mo. […]

[3] = test system: pancreatic adenocarcinoma cells; conditions: in one study; cited from earlier work
rat mesangial cells = conditions: cited from earlier work
hepatoblastoma cells = conditions: cited from earlier work

LANP: first 30 amino acids from the N-terminal end of the ANP prohormone (NPMYNAVSNADLMDFKNLLDHLEEKMPLED; long-acting natriuretic peptide; UniProt P01160 26-55, looked up, fragment)
decrease in the number of adenocarcinoma cells ([1]; 1 μM, 24 hours, vs untreated cells): 47%
number of adenocarcinoma cells ([1]; 1 μM, 24 hours, untreated 183.4+/−8): 97.7+/−3 cells per high powered field
number of cancer cells compared to controls ([1]; 1 μM): 43%
decrease in the number of adenocarcinoma cells ([1]; 1 μM, 72 hours, vs untreated cells): 47%
decrease in the number of adenocarcinoma cells ([1]; 1 μM, 96 hours, vs untreated cells): 48%
decrease in the number of adenocarcinoma cells ([1]; time not stated): ~50%
inhibition of DNA synthesis ([2]; 1 μM): 84%

CCCCC[C@H](O)/C=C/[C@H]1[C@H](O)CC(=O)[C@@H]1C/C=C\CCCC(=O)O [prostaglandin E2, (5Z, 11α, 13E, 15S)-11, 15-dihydro-9-oxo-prosta-5, 13-dien-I-oic acid]
decrease in DNA synthesis ([2]; 10 pg/ml): 4%
decrease in DNA synthesis ([2]; 1 ng/ml): 5%
decrease in DNA synthesis ([2]; 10 ng/ml): 5%
decrease in DNA synthesis ([2]; 0.1 μg/ml): 9%
decrease in DNA synthesis ([2]; 1 μg/ml): 11%
decrease in DNA synthesis ([2]; 10 μg/ml): 14%
decrease in DNA synthesis ([2]; 1 mg/ml): 23%

O=c1[nH]cc(F)c(=O)[nH]1 [5-FU, 5-fluorouracil]
decrease in pancreatic adenocarcinoma cells in culture [3]: 16%

CC[C@H](C)[C@@H]1NC(=O)[C@H](CCCNC(=N)N)NC(=O)[C@H](CC(=O)O)NC(=O)[C@H](CCSC)NC(=O)[C@H](CCCNC(=N)N)NC(=O)CNC(=O)CNC(=O)[C@H](Cc2ccccc2)NC(=O)[C@@H](NC(=O)[C@H](CO)NC(=O)[C@H](CO)NC(=O)[C@H](CCCNC(=N)N)NC(=O)[C@H](CCCNC(=N)N)NC(=O)[C@H](CC(C)C)NC(=O)[C@@H](N)CO)CSSC[C@@H](C(=O)N[C@@H](CC(N)=O)C(=O)N[C@@H](CO)C(=O)N[C@@H](Cc2ccccc2)C(=O)N[C@@H](CCCNC(=N)N)C(=O)N[C@@H](Cc2ccc(O)cc2)C(=O)O)NC(=O)CNC(=O)[C@H](CC(C)C)NC(=O)CNC(=O)[C@H](CO)NC(=O)[C@H](CCC(N)=O)NC(=O)[C@H](C)NC(=O)CNC1=O [ANP]
number of cancer cells compared to controls ([1]; 1 μM): 33%
inhibition of DNA synthesis ([2]; 1 μM): 83%
inhibition of DNA synthesis (rat mesangial cells): 47% to 60
inhibition of DNA synthesis (hepatoblastoma cells): 22%

Nc1nc2c(nc(Br)n2[C@@H]2O[C@@H]3COP(=O)(O)O[C@H]3[C@H]2O)c(=O)[nH]1 [8-bromo cyclic GMP, 8-bromoguanosine 3′,5′-cyclic monophosphate]
decrease in DNA synthesis ([2]; 1 nM): 25%
decrease in DNA synthesis ([2]; 1 μM): 34%
decrease in DNA synthesis ([2]; 100 μM): 39%
decrease in DNA synthesis ([2]; 1 mM): 42%
decrease in DNA synthesis ([2]; 3 mM): 46%
decrease in DNA synthesis ([2]; 5 mM): 51%
